For one assay, the system named is Vero. Briefly: Vero cell cytotoxicity, cytotoxicity control for flavivirus capping enzyme inhibitors (AID 588742). The format is functional. The note with it: Chlorocebus sabaeus.
Assay [1] can be described thus: inhibitors of HIV Env-driven cell fusion, dose response, cherry-pick (AID 652057). The class given is functional, cell-based.
Assay [2] is described as follows: ZM109 Env clade C HIV-1 fusion inhibitors, dose response, HeLa effector, CEM target cells, luciferase, cherry-pick (AID 652058). The format is functional, cell-based.
Assay [3] can be described thus: inhibitors of clade B AD8 Env fusion, dose response, cell-based, cherry-pick (AID 652062).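 Note: luciferase signal from cell-cell fusion driven by HIV-1 clade B AD8 Env; potency is for inhibitors of fusion seen as a drop in luminescence.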 The class given is functional.
Assay [4] has as its target T1, Tyrosine-protein kinase receptor TYRO3 (Homo sapiens, UniProt Q06418).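 Note: TYRO3 value obtained as one member of a kinome-wide profiling panel.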
T1 sequence (Q06418 whole entry): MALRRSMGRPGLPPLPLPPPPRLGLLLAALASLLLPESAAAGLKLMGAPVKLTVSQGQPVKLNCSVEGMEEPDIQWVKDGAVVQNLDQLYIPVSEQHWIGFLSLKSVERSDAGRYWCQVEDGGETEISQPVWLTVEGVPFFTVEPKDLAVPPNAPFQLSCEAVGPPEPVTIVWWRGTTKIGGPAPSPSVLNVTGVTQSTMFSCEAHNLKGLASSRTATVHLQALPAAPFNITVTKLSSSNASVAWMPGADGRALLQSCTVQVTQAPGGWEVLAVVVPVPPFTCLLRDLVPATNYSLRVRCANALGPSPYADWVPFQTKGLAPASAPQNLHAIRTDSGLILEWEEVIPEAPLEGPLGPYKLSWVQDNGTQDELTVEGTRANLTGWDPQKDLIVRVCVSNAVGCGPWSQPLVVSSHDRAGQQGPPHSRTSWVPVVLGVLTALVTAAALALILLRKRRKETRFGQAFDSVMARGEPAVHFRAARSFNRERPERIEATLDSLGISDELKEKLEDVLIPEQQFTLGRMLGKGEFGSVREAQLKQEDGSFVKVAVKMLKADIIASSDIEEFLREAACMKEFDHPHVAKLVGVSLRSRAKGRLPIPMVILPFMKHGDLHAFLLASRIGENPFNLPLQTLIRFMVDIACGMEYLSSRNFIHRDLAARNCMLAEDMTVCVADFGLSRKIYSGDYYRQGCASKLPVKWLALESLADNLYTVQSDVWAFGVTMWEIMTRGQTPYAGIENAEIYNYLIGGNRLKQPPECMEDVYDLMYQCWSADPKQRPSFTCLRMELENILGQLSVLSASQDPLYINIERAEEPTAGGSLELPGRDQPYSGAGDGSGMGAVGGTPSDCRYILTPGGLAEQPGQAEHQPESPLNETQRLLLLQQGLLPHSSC
The format is functional.

Assay [5] concerns the target Testis-specific serine/threonine-protein kinase 2 (Homo sapiens, UniProt Q96PF2). The class given is functional.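 Note: part of the Navigating the Kinome panel, target entry STK22B.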
In assay [6] the target is Casein kinase II subunit alpha (Homo sapiens, UniProt P68400). The format is functional.
Chain of Casein kinase II subunit alpha (P68400 whole entry): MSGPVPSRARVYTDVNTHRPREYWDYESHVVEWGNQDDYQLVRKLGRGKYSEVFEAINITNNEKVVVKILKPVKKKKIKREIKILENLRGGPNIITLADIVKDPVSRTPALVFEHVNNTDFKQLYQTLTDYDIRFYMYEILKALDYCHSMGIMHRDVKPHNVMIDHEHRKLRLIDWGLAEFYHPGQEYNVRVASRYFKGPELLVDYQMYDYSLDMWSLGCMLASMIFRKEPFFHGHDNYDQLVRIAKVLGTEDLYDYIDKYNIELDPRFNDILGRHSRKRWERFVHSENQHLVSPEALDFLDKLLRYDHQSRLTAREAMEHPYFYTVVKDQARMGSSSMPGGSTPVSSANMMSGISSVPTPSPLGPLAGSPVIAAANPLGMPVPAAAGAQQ
For assay [7], the target named is Tyrosine-protein kinase JAK3 (Homo sapiens, UniProt P52333). The format is functional.
Assay [8] addresses Proto-oncogene tyrosine-protein kinase ROS (Homo sapiens, UniProt P08922). The class given is functional.
The target of assay [9] is Tyrosine-protein kinase Blk (Homo sapiens, UniProt P51451). The class given is functional.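 Note: obtained as one member of a kinome-wide kinase assay panel.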
For assay [10], the target named is Testis-specific serine/threonine-protein kinase 1 (Homo sapiens, UniProt Q9BXA7). The class given is functional.
Chain of Testis-specific serine/threonine-protein kinase 1 (Q9BXA7 whole entry): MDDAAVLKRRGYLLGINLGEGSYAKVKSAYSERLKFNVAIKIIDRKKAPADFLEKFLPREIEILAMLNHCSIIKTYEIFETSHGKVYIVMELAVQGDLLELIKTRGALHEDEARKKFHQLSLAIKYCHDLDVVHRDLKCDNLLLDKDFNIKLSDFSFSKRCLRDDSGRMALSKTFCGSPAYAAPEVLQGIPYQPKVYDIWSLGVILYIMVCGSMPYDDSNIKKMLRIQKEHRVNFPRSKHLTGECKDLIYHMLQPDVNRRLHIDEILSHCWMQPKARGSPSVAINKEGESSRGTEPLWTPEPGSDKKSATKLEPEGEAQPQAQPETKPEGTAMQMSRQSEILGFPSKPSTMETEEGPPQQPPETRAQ
The target of assay [11] is MAP/microtubule affinity-regulating kinase 3 (Homo sapiens, UniProt P27448). The class given is functional.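 Note: MARK3 affinity measured as one member of a kinome panel.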
The target in the next assay is Insulin receptor (Homo sapiens, UniProt P06213). The class given is functional.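 Note: insulin receptor kinase tested as one member of a kinome-wide kinase panel.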
Assay [12] concerns the target Mitogen-activated protein kinase kinase kinase 20 (Homo sapiens, UniProt Q9NYL2). The format is functional.
Assay [13] deals with Tyrosine-protein kinase Srms (Homo sapiens, UniProt Q9H3Y6). The class given is functional.
The target in assay [14] is Dual specificity tyrosine-phosphorylation-regulated kinase 3 (Homo sapiens, UniProt O43781). The format is functional.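 Note: measured as one member of a broad kinase panel.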
Assay [15] has as its target Receptor-type tyrosine-protein kinase FLT3 (Homo sapiens, UniProt P36888). The format is functional.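 Note: FLT3 was tested as one member of a kinome-wide kinase panel.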
In the next assay the target is Ephrin type-A receptor 2 (Homo sapiens, UniProt P29317). The format is functional.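 Note: EPHA2 tested as one member of a kinome-wide kinase panel.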
Chain of Ephrin type-A receptor 2 (P29317 whole entry): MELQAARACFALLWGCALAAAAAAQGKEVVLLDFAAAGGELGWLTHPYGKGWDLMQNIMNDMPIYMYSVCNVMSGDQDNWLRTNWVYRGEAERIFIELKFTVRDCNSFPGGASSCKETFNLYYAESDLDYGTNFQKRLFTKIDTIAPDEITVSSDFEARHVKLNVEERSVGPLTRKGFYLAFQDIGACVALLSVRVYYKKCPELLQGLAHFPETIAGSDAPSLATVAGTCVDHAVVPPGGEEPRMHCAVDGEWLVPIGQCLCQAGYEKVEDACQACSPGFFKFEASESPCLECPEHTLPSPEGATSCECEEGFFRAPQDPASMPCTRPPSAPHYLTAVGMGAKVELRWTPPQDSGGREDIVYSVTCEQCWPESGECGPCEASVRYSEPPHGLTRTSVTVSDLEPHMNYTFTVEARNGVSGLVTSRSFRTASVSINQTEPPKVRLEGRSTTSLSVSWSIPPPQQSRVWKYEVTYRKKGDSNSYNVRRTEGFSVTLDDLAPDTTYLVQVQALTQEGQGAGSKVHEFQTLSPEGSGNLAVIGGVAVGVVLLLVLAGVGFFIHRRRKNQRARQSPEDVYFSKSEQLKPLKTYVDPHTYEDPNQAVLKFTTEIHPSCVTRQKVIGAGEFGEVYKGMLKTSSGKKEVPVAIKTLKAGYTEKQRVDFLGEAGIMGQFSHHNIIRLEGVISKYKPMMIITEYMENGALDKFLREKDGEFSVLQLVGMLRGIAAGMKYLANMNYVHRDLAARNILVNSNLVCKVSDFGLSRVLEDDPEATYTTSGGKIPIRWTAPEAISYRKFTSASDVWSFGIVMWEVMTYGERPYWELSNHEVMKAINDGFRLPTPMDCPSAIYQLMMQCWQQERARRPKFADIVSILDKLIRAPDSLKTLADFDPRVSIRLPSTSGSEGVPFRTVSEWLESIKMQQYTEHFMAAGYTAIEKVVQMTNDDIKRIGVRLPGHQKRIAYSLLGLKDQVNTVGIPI
The target in assay [16] is Serine/threonine-protein kinase Nek4 (Homo sapiens, UniProt P51957). The class given is functional.
Assay [17] has as its target Dual specificity tyrosine-phosphorylation-regulated kinase 4 (Homo sapiens, UniProt Q9NR20). The format is functional.
For assay [18], the target named is Maternal embryonic leucine zipper kinase (Homo sapiens, UniProt Q14680). The class given is functional.
In assay [19] the target is Serine/threonine-protein kinase DCLK1 (Homo sapiens, UniProt O15075). The format is functional.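 Note: affinity for DCLK1 (listed as DCAMKL1) measured as one member of a kinome-wide kinase profiling panel.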
Assay [20] deals with STE20-like serine/threonine-protein kinase (Homo sapiens, UniProt Q9H2G2). The format is functional.
The target of assay [21] is Receptor tyrosine-protein kinase erbB-4 (Homo sapiens, UniProt Q15303). The format is functional.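 Note: ERBB4 member of a kinome-wide kinase profiling panel.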
Assay [22] deals with Mitogen-activated protein kinase 12 (Homo sapiens, UniProt P53778). The format is functional.
Chain of Mitogen-activated protein kinase 12 (P53778 whole entry): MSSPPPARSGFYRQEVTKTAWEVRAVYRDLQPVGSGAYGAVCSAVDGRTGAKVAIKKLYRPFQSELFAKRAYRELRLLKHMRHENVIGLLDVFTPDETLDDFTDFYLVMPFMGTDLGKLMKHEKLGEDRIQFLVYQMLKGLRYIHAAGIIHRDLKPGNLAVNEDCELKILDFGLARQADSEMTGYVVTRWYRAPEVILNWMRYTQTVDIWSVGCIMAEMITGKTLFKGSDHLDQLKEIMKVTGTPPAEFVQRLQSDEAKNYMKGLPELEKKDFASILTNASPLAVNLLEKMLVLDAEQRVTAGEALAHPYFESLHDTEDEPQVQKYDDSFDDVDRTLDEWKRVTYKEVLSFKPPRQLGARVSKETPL
In assay [23] the target is Lymphokine-activated killer T-cell-originated protein kinase (Homo sapiens, UniProt Q96KB5). The format is functional.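 Note: value comes from a kinase panel screen in which TOPK was one of the panel members.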
Assay [24] has as its target Leukocyte tyrosine kinase receptor (Homo sapiens, UniProt P29376). Kind of assay: Navigating the Kinome. Panel member name: LTK. The format is functional.
In the next assay the target is T2, Aurora kinase A (Homo sapiens, UniProt O14965).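 Note: value from the Navigating the Kinome kinase panel profiling, panel entry STK6.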
T2 sequence (O14965 whole entry): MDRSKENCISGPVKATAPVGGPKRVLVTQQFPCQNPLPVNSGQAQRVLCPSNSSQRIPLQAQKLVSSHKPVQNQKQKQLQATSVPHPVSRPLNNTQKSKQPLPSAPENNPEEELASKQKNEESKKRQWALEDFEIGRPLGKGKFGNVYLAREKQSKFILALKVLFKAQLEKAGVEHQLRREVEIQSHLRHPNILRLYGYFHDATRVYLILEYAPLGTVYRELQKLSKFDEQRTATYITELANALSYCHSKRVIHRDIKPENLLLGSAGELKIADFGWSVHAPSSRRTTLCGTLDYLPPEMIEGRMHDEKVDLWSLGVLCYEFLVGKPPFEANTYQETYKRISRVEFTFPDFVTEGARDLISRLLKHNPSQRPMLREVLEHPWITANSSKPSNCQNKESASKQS
The format is functional.

Assay [25] deals with Glycogen synthase kinase-3 beta (Homo sapiens, UniProt P49841). The class given is functional.

Active and inactive are the calls of the source. Where only a bound is given, the exact number is not on record here.

Chain of Mitogen-activated protein kinase kinase kinase 20 (Q9NYL2 whole entry): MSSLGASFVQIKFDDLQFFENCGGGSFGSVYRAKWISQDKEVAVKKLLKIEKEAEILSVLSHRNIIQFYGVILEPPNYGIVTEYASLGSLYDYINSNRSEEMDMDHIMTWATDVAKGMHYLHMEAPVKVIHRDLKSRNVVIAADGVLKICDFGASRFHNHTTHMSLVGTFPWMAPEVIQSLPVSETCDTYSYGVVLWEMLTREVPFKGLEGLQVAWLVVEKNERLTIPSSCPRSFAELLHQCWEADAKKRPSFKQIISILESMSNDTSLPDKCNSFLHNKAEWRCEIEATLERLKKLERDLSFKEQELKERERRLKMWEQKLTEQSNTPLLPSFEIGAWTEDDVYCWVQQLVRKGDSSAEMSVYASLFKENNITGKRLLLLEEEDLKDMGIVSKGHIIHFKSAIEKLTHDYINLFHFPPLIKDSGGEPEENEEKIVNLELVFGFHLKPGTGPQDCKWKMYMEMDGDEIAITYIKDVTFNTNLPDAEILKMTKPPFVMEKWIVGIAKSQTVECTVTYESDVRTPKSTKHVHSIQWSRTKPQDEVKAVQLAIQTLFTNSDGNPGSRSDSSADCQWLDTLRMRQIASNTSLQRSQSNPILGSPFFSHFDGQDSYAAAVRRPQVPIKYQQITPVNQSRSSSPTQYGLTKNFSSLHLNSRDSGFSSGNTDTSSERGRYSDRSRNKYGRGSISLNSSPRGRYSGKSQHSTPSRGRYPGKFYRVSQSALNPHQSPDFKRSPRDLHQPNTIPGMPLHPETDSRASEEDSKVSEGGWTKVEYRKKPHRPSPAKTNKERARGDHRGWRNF
Chain of Testis-specific serine/threonine-protein kinase 2 (Q96PF2 whole entry): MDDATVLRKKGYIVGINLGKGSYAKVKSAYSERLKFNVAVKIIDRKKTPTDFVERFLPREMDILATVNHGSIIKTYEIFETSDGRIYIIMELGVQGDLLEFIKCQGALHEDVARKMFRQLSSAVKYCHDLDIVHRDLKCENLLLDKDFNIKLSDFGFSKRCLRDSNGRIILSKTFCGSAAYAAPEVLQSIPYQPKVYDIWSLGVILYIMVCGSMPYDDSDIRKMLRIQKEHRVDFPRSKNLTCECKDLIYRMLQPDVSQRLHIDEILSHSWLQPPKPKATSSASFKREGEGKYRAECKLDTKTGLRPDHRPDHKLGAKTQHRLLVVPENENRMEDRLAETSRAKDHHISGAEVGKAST
Chain of Dual specificity tyrosine-phosphorylation-regulated kinase 4 (Q9NR20 whole entry): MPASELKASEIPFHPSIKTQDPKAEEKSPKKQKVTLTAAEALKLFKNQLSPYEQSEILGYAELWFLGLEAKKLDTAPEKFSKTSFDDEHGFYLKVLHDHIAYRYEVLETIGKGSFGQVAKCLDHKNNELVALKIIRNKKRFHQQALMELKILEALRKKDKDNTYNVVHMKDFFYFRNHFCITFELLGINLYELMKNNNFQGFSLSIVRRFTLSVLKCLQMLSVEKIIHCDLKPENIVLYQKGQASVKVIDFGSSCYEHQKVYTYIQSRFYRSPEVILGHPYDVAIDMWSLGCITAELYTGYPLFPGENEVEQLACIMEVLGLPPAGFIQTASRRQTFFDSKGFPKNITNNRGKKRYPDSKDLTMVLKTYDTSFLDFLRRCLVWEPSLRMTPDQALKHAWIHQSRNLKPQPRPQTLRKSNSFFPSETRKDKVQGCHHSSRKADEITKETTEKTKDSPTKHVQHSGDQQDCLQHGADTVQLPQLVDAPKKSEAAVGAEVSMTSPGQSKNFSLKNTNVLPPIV
Chain of Receptor-type tyrosine-protein kinase FLT3 (P36888 whole entry): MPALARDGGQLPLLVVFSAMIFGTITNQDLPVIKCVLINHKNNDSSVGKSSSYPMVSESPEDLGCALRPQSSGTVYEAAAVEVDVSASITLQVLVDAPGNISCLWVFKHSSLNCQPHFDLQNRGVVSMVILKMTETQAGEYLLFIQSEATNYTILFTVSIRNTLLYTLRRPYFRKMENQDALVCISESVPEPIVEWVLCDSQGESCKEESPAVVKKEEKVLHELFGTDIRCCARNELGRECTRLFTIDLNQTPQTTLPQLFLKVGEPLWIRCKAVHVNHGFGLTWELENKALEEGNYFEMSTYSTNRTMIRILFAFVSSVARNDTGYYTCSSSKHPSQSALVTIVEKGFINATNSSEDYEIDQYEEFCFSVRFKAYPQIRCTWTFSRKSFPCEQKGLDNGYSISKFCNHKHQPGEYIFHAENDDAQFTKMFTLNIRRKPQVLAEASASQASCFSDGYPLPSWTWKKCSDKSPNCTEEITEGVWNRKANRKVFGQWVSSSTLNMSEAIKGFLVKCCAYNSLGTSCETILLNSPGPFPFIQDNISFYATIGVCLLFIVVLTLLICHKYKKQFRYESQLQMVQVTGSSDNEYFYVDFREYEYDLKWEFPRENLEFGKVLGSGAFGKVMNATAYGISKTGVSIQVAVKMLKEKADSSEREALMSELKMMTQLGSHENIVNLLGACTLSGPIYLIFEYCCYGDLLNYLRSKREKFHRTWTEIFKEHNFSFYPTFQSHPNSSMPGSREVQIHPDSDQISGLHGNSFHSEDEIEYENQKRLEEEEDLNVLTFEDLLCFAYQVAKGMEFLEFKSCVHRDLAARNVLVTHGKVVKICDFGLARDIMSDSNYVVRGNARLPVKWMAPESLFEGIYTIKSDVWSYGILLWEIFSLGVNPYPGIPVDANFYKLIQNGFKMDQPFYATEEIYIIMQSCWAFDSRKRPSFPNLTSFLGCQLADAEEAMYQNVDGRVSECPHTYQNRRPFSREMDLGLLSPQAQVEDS

The CC50 is the concentration at which the toxic effect on the cells reaches its halfway point. `O=C(O)c1ccc(NC2=C(Cl)C(=O)c3ccccc3C2=O)cc1`: the CC50 in the assay on Vero is 28.3 µM (active).
For orientation: AC50 means the concentration giving half of the maximal activity seen. With `CCOC(=O)c1c2c(n(Cc3ccccc3)c1C)C(=O)C(=O)c1ccccc1-2`, the results for the AC50 in [1], in [2] and in assay [3] were 6.28 µM (active), 10.9 µM (active) and 10.6 µM (active), respectively.
What is called Ki is the dissociation constant of the complex between target and ligand, obtained from inhibition or displacement. With `Cc1ccc2nccc(NC(=O)Nc3cccc(C(F)(F)F)n3)c2c1`, the Ki was > 2.51 µM (inactive) in assay [4]; > 1.58 µM (inactive) in assay [5]; 0.251 µM (active) in [6]; > 3.16 µM (inactive) in assay [7]; > 2 µM (inactive) in assay [8]; > 1.58 µM (inactive) in [9]. The Ki is > 1.58 µM (inactive) in assay [10]; > 6.31 µM (inactive) in [11]; > 5.01 µM (inactive) on Insulin receptor; > 7.94 µM (inactive) in assay [12]; > 1.58 µM (inactive) in assay [13]; > 6.31 µM (inactive) in assay [14]. The Ki in assay [15] was 0.251 µM (active); on Ephrin type-A receptor 2, > 3.16 µM (inactive); in assay [16], > 6.31 µM (inactive); in assay [17], > 7.94 µM (inactive); in assay [18] it was > 1.58 µM (inactive); in [19], > 10 µM (inactive). Besides, the Ki was > 10 µM (inactive) in [20]; > 3.98 µM (inactive) in assay [21]; > 6.31 µM (inactive) in [22]; 2 µM (active) in assay [23]; > 3.16 µM (inactive) in [24].
For the molecule `Cc1nn(C)c2sc3c(=O)[nH]cnc3c12`, the Ki was > 63.1 µM (inactive) on Aurora kinase A, > 50.1 µM (inactive) on Insulin receptor and 39.8 µM (active) in assay [25].
Consider `Cc1c(/N=C2\C=CC(=O)c3ccccc32)c(=O)n(-c2ccccc2)n1C`, for which the half-maximal cytotoxic concentration (CC50) with Vero is 20.6 µM (active).
`COc1cc2c(cc1F)C(c1ccccc1Cl)=Nc1c(n[nH]c1C)N2` [RG-1530]: the Ki was > 2.51 µM (inactive) in assay [4]; 1 µM (active) in assay [5]; 0.0251 µM (active) at Aurora kinase A; 2.51 µM (active) in assay [6]; 0.0794 µM (active) in [7]; 0.02 µM (active) in assay [8]. In addition, the inhibition constant (Ki) in [9] was 0.0631 µM (active); in assay [10] it was > 1.58 µM (inactive); in [11], > 2.51 µM (inactive); in assay [12] it was > 7.94 µM (inactive); in assay [13], > 1.58 µM (inactive); in assay [15], 0.0794 µM (active). Further, the Ki on Ephrin type-A receptor 2 is 0.0501 µM (active); in assay [16] it was > 6.31 µM (inactive); in assay [17] it was > 7.94 µM (inactive); in [18], 1.26 µM (active); in assay [19] it was > 10 µM (inactive); in [20], 0.0398 µM (active). In addition, the Ki in assay [21] is 2 µM (active); in [22], > 6.31 µM (inactive); in [23] it was > 10 µM (inactive).
